ChEMBL document CHEMBL1201862, “PubChem BioAssay data set” (2004)
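Step 1: Grow cells in 96-well plates. Step 2: Expose to compound for 48 hours at 5 concentrations. Step 3: Interpolate endpoints linearly; if unreached, use highest concentration. GI50: concentration for 50% inhibition of growth.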 The source made the active and inactive calls. No stated cut-off is given here; in the data, active = GI50 up to about 1.1 µM and inactive = higher.

What was measured:
Assay in all cases: NCI anticancer screen, dose series, 48 h
[1] = system: RXF 631
[2] = system: DMS-114
[3] = system: XF498
[4] = system: DMS-273
[5] = system: M19-MEL
[6] = system: DLD-1
[7] = system: KM-20L2
[8] = system: SNB-78
[9] = system: HOP-18

Measured: GI50

CC1SC2=NC3=C(c4ccccc4C3=O)C(c3ccc(Cl)cc3)N2C1=O (stereo unspecified)
inactive: [1] > 100 µM | [2] > 100 µM | [3] > 100 µM | [4] > 100 µM | [5] > 100 µM | [6] > 100 µM | [7] > 100 µM

C/C(=N/NC(=O)C[n+]1ccccc1)C(CN(CC(C)C)CC(C)C)C(=O)Nc1ccc(C)cc1C (stereo unspecified)
inactive: [1] > 100 µM | [2] > 100 µM | [5] > 100 µM | [6] > 100 µM | [7] > 100 µM

Cc1ccc2c(c1)NC(=O)C(N=[N+]=[N-])(c1ccccc1)C2=O (stereo unspecified)
inactive: [8] 28.1 µM | [9] 26.1 µM | [2] 34.3 µM | [3] 24.7 µM | [4] 12.3 µM | [5] 19.7 µM | [6] 43 µM | [7] 30.3 µM

C=C[C@H]1C=Cc2c(OC)cccc2[C@@H]1COP1(=S)NC(C)C(c2ccccc2)O1 (stereo partly specified)
inactive: [8] > 100 µM | [9] > 100 µM | [2] 32.9 µM | [3] > 100 µM | [4] 57.9 µM | [5] 75 µM | [6] > 100 µM | [7] > 100 µM

N=C1c2ccccc2C(=O)c2c(NCCNCCO)ccc(O)c21
inactive: [8] 18.8 µM | [9] 11.5 µM | [2] 3.93 µM | [4] 5.57 µM | [5] 5.55 µM | [6] 5.92 µM | [7] 5 µM

CC(C)(C)c1cc2c3c(c1)c(=O)c1cccc4c(O)c5cccc(c2=O)c5c-3c41
inactive: [9] > 100 µM | [2] 10 µM | [3] 35.5 µM | [4] 26.1 µM | [5] > 100 µM | [6] 61 µM | [7] 33.2 µM

COC(=O)[C@@]12C3=NO[C@]1(C(=O)OC)C(O[Si](C)(C)C(C)(C)C)[C@@H](OC(C)=O)[C@@H](OC(C)=O)[C@@H]2[C@@H](OCc1ccccc1)CC3 (stereo partly specified)
inactive: [8] > 96.2 µM | [9] > 100 µM | [2] 6.35 µM | [3] 15.8 µM | [4] 6.05 µM | [5] > 100 µM | [6] > 30.5 µM | [7] > 100 µM

[N-]=[N+]=Nc1ccc(S(=O)(=O)Oc2cc(OS(=O)(=O)c3ccc(N=[N+]=[N-])cc3)cc(OS(=O)(=O)c3ccc(N=[N+]=[N-])cc3)c2)cc1
inactive: [1] > 100 µM | [8] > 100 µM | [9] > 100 µM | [2] > 100 µM | [3] > 100 µM | [4] > 100 µM | [5] > 100 µM | [6] > 100 µM | [7] > 100 µM

COc1cccc(/C(Cl)=C(\C=O)c2cccc(OC)c2)c1
inactive: [8] 4.24 µM | [9] 16.4 µM | [2] 3.12 µM | [3] 13.8 µM | [4] 8.17 µM | [5] 12.7 µM | [6] 8.43 µM | [7] 20.9 µM

O=C(Nc1ccccc1[N+](=O)[O-])c1ccccc1
inactive: [1] 64.1 µM | [8] > 100 µM | [9] > 100 µM | [2] 70.1 µM | [3] > 100 µM | [4] > 100 µM | [5] > 100 µM | [6] 72.3 µM | [7] > 100 µM

CN1N=CSC12C(=O)N(c1ccccc1)C(=O)N2c1ccccc1 (stereo unspecified)
inactive: [1] > 100 µM | [8] > 100 µM | [2] > 100 µM | [3] > 100 µM | [4] > 100 µM | [5] > 100 µM | [6] > 100 µM | [7] > 100 µM
active: [9] < 0.01 µM

O=c1/c(=C/c2ccccc2[N+](=O)[O-])sc2nnc(-c3ccco3)n12
inactive: [8] 25.7 µM | [9] 25.1 µM | [2] 20 µM | [3] 18.4 µM | [4] 28.7 µM | [5] 19.5 µM | [6] 29.2 µM | [7] 91 µM

COCCOc1cc(C)cc(/C=C(C)/C=C/C2=C(C)CCCC2(C)C)n1
inactive: [1] 59.8 µM | [8] 81.3 µM | [9] > 100 µM | [2] 28.1 µM | [3] 43.6 µM | [4] 48.5 µM | [5] 32.8 µM | [6] > 100 µM

COc1c(C)c(O)c2c(c1C)OC(c1ccccc1)CC2=O (stereo unspecified)
inactive: [8] > 100 µM | [9] 25 µM | [2] 40.8 µM | [4] 59.6 µM | [5] 38.1 µM | [6] 66.1 µM | [7] 31.6 µM

COc1ccc(C)cc1-c1ccc(-c2cc(C)ccc2OC)o1
inactive: [1] > 100 µM | [8] > 100 µM | [2] > 100 µM | [4] > 100 µM | [5] 54.6 µM | [6] > 100 µM | [7] > 100 µM

COc1ccc(/C=C/C(=O)c2sc(NC(=S)NC(=O)c3ccccc3F)nc2C)cc1OC
inactive: [8] > 100 µM | [9] 22.8 µM | [2] > 100 µM | [4] > 100 µM | [5] > 100 µM | [6] > 100 µM | [7] > 100 µM

FC(F)(F)c1nc(-c2ccccc2)oc1Sc1nnc(Sc2oc(-c3ccccc3)nc2C(F)(F)F)s1
inactive: [1] 36.9 µM | [8] 34.1 µM | [9] > 100 µM | [2] 6.15 µM | [3] 9.06 µM | [4] 46.8 µM | [5] 23.2 µM | [6] 36.4 µM | [7] > 100 µM

COc1ccc(N(C)CN(C)c2nc(N(C)C)nc(N(C)C)n2)cc1
inactive: [8] > 100 µM | [9] > 100 µM | [2] > 100 µM | [4] > 100 µM | [5] > 100 µM | [6] > 100 µM | [7] > 100 µM

C[C@]12CCC(=O)C=C1CC[C@@H]1C2CC[C@]2(C)Nc3c(cnn3-c3ccccc3)CC12 (stereo partly specified)
inactive: [1] 96.8 µM | [8] > 100 µM | [2] > 100 µM | [3] > 100 µM | [4] > 100 µM | [5] > 100 µM | [6] > 100 µM | [7] > 100 µM

CCOc1ccc(NC(=O)CC2C(=O)Nc3ccccc3S2(=O)=O)cc1 (stereo unspecified)
inactive: [1] > 100 µM | [8] 90.4 µM | [9] > 100 µM | [2] > 100 µM | [3] 29.8 µM | [5] > 100 µM | [6] > 100 µM | [7] > 100 µM

CC(=O)NC1=C(NCCO)C(=O)c2ccccc2C1=O
inactive: [8] > 50 µM | [3] > 50 µM | [4] > 50 µM | [5] 9.79 µM | [6] > 50 µM | [7] 24.2 µM

COc1c(O)c2ccccc2c2cc(O)ccc12
inactive: [8] 15.5 µM | [9] 1.75 µM | [2] 1.97 µM | [3] 2.69 µM | [4] 6.65 µM | [5] 2.01 µM | [6] 8.79 µM | [7] 22.5 µM

COc1cc(/C=C/c2ccc(Br)cc2)cc(OC)c1OC
inactive: [1] 9.77 µM | [9] 6.61 µM | [2] 10.4 µM | [3] 20.2 µM | [4] 4.91 µM | [5] 13.9 µM | [6] 6.93 µM | [7] 7.13 µM

CCOC(=O)C(=O)Nc1ccccc1OCC
inactive: [8] > 100 µM | [9] > 100 µM | [2] > 100 µM | [3] > 100 µM | [5] > 100 µM | [6] > 100 µM

O=C1c2cccc3cccc(c23)C(=O)N1CCCN1CCN(CCCN2C(=O)c3cccc4cccc(c34)C2=O)CC1
inactive: [1] > 100 µM | [8] > 100 µM | [9] > 100 µM | [2] > 100 µM | [3] > 100 µM | [4] > 100 µM | [5] > 100 µM | [6] > 100 µM | [7] > 100 µM
